Source: patent US8710099B2, “Treatment of cancer using the sodium salt of a benzoic acid derivative” (New York University, priority 2009, dated 2014)

Tests used:
[1] = system: tyrosinase (from mushrooms); experiment: Purified tyrosinase activity, DOPAchrome formation; assay type: biochemical; conditions: 8.0 mM, up to 10 minutes; FIG. 2
Protocol: Activity of purified tyrosinase was measured by monitoring the formation of DOPAchrome. Briefly, a fixed concentration of L-DOPA (8.0 mM) was incubated with 800 U/ml tyrosinase (from mushrooms-Sigma, St. Louis, Mo.) in the absence or presence of increasing concentrations of PABA, compound 44 (C-44) and compound 45 (C-45) (see FIG. 1 for structures) for indicated time points (see FIG. 2 for concentrations and time points). At each time point, 100 μl of the reaction mixture was measured. Data points represent the mean optical density at 475 nm±SD from triplicate wells.

[2] = system: 4T1 breast carcinoma cells; experiment: Tumor cell proliferation, WST-1 tetrazolium salt cleavage; assay type: cell-based; conditions: 50 μg/ml test compound, 0.01 μM TAXOL®; vs untreated control; FIG. 3C
Protocol: (§1) Tumor cell proliferation was assessed by monitoring mitochondrial dehydrogenase activity as detected by tetrazolium salt cleavage using a commercially available kit (WST-1; Roche, Indianapolis, Ind.). Briefly, B16F10 melanoma cells, Lewis Lung carcinoma cells, and 4T1 breast carcinoma cells (1×10^6) were resuspended in PABA-free growth medium supplemented with 2.0% fetal bovine serum and 50 μg/ml of test compound (as shown in FIG. 1) Following incubation for 3 days, the cells were either treated or not treated with 0.01 μM TAXOL® and incubated for an additional 48 hours. Proliferation was measured; data points represent the mean optical density at 490 nm±SD from triplicate wells.

[3] = system: Lewis Lung carcinoma cells; experiment: as above; assay type: cell-based; conditions: 50 μg/ml test compound, 0.01 μM TAXOL®; vs untreated control; FIG. 3B
Protocol: as §1

B16F10 melanoma cells [4] = experiment: as above; assay type: cell-based; conditions: 50 μg/ml test compound, 0.01 μM TAXOL®; vs untreated control; FIG. 3A
Protocol: as §1

B16F10 melanoma cells [5] = experiment: Chick embryo tumor growth model; assay type: in vivo, chick embryos; conditions: for growth of the B16F10 tumors: 50 μg/ml C-45, TAXOL® 0.01 μM, FIG. 5B
Protocol: The chick embryo tumor growth model was used to determine whether C-45 enhances the ability of TAXOL® or ionizing radiation to inhibit tumor growth. Briefly, B16F10 melanoma cells were cultured in growth medium in the presence or absence of 50 μg/ml C-45 for at least 7 days. Following harvesting and washing, about 2×10^5 tumor cells were implanted onto the chorioallontoic membranes of 10 day-old chick embryos and incubated for at least 24 hours. Following incubation, the embryos were treated with either a single fractionated dose of radiation (5.0 Gy) or TAXOL® (paclitaxel) (0.01 μM) and incubated for an additional 7 days. The embryos were sacrificed and tumors were resected and weighed (5-10 embryos per condition).

B16F10 melanoma cells [6] = experiment: In vivo tumor growth of B16F10 xenografts in nude mice; conditions: daily i.p. for 15 days, TAXOL® 0.5 μM, C-45 100 μg; FIG. 4
Protocol: In addition, tumor growth in vivo of xenografts of B16F10 melanoma cells in nude mice was determined Briefly, subconfluent cultures of B16F10 cells were harvested, washed, and resuspended in sterile PBS. Female nude mice were injected subcutaneously with 1×10^6 cells per mouse and tumors were allowed to grow for 3 days. After 3 days, mice were either untreated or treated daily for 15 days by intraperitoneal injection of TAXOL® (0.5 μM), C-45 (100 μg), or a combination of TAXOL® and C-45. Tumor growth was determined weekly by caliper measurements. After 15 days, the mice were sacrificed and tumor volume was determined by standard methods using the formula […], where V=volume, L=length, and W=width.

PXR/SXR receptor = molecular target: T1, PXR/SXR receptor (Homo sapiens, UniProt O75469); conditions: Moore et al., Mol. Endocrinol. 2002; cited from earlier work
T1 sequence (O75469 1-434): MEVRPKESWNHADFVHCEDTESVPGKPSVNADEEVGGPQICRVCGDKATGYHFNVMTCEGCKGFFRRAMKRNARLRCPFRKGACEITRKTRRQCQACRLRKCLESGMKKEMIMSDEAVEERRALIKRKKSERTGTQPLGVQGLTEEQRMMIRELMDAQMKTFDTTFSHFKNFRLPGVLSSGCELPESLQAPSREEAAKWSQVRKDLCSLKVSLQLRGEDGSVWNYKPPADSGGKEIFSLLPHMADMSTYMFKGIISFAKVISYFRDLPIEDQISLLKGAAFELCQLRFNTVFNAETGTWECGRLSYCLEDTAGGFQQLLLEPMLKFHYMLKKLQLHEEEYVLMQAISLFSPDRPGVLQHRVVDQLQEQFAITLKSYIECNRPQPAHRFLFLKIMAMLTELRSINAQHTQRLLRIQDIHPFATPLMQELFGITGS

[7] = system: G361 human melanoma cells; experiment: Protein expression in PABA-treated G361 melanoma cells (data not shown); assay type: cell-based; conditions: G361 cells treated with PABA

Row | tyrosinase activity [1] | SMILES | in vitro proliferation of 4T1 breast carcinoma cells [2] | in vitro proliferation of Lewis Lung carcinoma cells [3] | in vitro proliferation of B16F10 cells (B16F10 melanoma cells [4]) | growth of the B16F10 tumors (B16F10 melanoma cells [5]) | tumor growth in vivo, combination with radiation (B16F10 melanoma cells [5]; 50 μg/ml C-45 plus single dose of radiation 5.0 Gy, FIG. 5A) | tumor weight (B16F10 melanoma cells [5]; cells cultured with 50 μg/ml C-45, C-45 alone, FIG. 5A) | in vivo tumor growth compared to untreated controls (B16F10 melanoma cells [6]) | binding to the PXR/SXR receptor (PXR/SXR receptor) | expression of cell-cycle progression checkpoint protein CDC25A [7] | protein expression of DNA repair protein BRCA-2 [7]
1 | inhibited tyrosinase activity | C=CCNc1ccc(C(=O)O)cc1 [C-45, 4-allylaminobenzoic acid] | inhibited in vitro proliferation | inhibited in vitro proliferation | inhibited in vitro proliferation | inhibited the growth of the B16F10 tumors significantly | even more effective at inhibiting tumor growth | reduced tumor weight significantly | neither TAXOL® nor C-45 inhibited in vivo tumor growth |  |  | 
2 | inhibited tyrosinase activity | Nc1ccc(C(=O)O)cc1 [PABA, para-amino-benzoic-acid] |  |  |  |  |  |  |  | bind to the PXR/SXR receptor | increase expression | decreased protein expression
3 |  | CC(=O)O[C@H]1C(=O)[C@@]2(C)[C@H]([C@H](OC(=O)c3ccccc3)[C@]3(O)C[C@H](OC(=O)[C@H](O)[C@@H](NC(=O)c4ccccc4)c4ccccc4)C(C)=C1C3(C)C)[C@]1(OC(C)=O)CO[C@@H]1C[C@@H]2O [TAXOL®, paclitaxel, reference compound] | inhibited in vitro proliferation | inhibited in vitro proliferation | inhibited in vitro proliferation | inhibited the growth of the B16F10 tumors significantly |  |  | neither TAXOL® nor C-45 inhibited in vivo tumor growth |  |  | 
